Earlier results as cited in patent US7022698B2, “Pharmaceutical compositions containing new polymorphic forms of olanzapine and uses thereof” (U & I Pharmaceuticals, Ltd., priority 1999, dated 2006).
Read-outs that look alike come from different tables or passages of the source.

Legend:
[1] = system: schizophrenia and schizoaffecive and schizophreniform disorders; settings: for Montgomery-Asberg Depression Rating Scale (MADRS) total score, baseline to endpoint decline: 6-week trial, p=0.001
[2] = system: dopamine receptors (D1 to D5)
[3] = system: serotonin (5-HT) receptors
[4] = system: muscarinic cholinergic receptor
[5] = system: patients with schizophrenia; settings: 10 mg/day, in comparison with olanzapine 1 mg/day or placebo
[6] = system: inpatients with a diagnosis of psychotic disorders
[7] = system: inpatients with psychotic depression
[8] = system: psychotic mood disorders patients and schizophrenic patients
bipolar type I patients = settings: mean dose 13.8 mg/day
[9] = system: patients with Alzheimer's disease (AD)
[10] = system: patients with Acute Mania; settings: 5–20 mg/day

O=C(CCCN1CCC(O)(c2ccc(Cl)cc2)CC1)c1ccc(F)cc1 [haloperidol]
Montgomery-Asberg Depression Rating Scale (MADRS) total score, baseline to endpoint decline [1]: 3 point

Cc1cc2c(s1)Nc1ccccc1N=C2N1CCN(C)CC1 [olanzapine, 2-methyl-4-(4-methyl-1-piperazinyl)-10H-thieno-[2,3b][1,5] benzodiazepine]
affinity for dopaminic receptors [2]: nanomolar affinity
binding selectivity among dopamine receptors ([2]; D1 to D5): relatively non-selective binding
affinity for serotonergic receptors [3]: nanomolar affinity
inhibition of 5-HT receptors ([3]; 5-HT2A, 5-HT2B, 5-HT2C, and 5-HT6 receptors): potent inhibitor
affinity for α1-adrenergic receptors (α1-adrenergic receptors): nanomolar affinity
inhibition of α-adrenergic receptor (α1-adrenergic receptors): potent inhibitor
affinity for muscarinic receptors [4]: nanomolar affinity
inhibition of muscarinic cholinergic receptor ([4]; all five subtypes): potent inhibitor
mesolimbic and mesocortical selectivity: mesolimbic and mesocortical selectivity
Hamilton Rating Scale for Depression scores [5]: significant reduction
Montgomery-Asberg Depression Rating Scale (MADRS) total score, baseline to endpoint decline [1]: 6 point
reduction of the MADRS scores ([1]; subanalysis, schizoaffective patients currently depressed, p=0.002): superior to haloperidol
decrease of Brief Psychiatric Rating Scale (BPRS) mania score ([1]; subanalysis, schizoaffective patients currently manic, p=0.25): as effective as haloperidol
overall response rate ([6]; all patients): 62%
response rate ([6]; bipolar disorder patients): 83%
response rate [7]: 67%
K Axis V subscale scores, baseline to follow-up ([8]; psychotic mood disorders group, psychological impairment, violence, and social skills subscales): statistically significant change
patients remaining hospitalized at follow-up ([8]; psychotic mood disorders patient group (24/32)): Seventy-five
change on the CGI and GAF-EQ ([8]; psychotic mood disorders patients (N=32) and schizophrenic patients (N=18) who continued olanzapine): statistically significant change toward improvement
K Axis V subscale scores, baseline to follow-up ([8]; schizophrenic group, only on the violence subscale): significant change in score only on the violence subscale
patients remaining hospitalized at follow-up ([8]; schizophrenic patients (18/18)): 100%
HAM-D score at baseline (bipolar type I patients; 113 patients): 12.2
YMRS score at baseline (bipolar type I patients; 113 patients): 25.5
HAM-D score on follow-up (bipolar type I patients; average 6.7 months, p<0.001): 6.5
YMRS score on follow-up (bipolar type I patients; average 6.7 months, p<0.001): 7.5
EPS (bipolar type I patients): Few EPS were noted
efficacy in reducing psychotic symptoms, parent study ([9]; 5-mg/day dose): most efficacious
safety, parent study ([9]; 5-mg/day dose): safest
efficacy in reducing psychotic symptoms, parent study ([9]; 10-mg/day dose, relative to placebo): significant efficacy
expression of psychotic symptoms, parent study ([9]; 15-mg/day dose): failed to separate from the placebo group
safety, parent study ([9]; 15-mg/day dose): less tolerated safety profile
emergence of psychotic symptoms compared to placebo ([9]; possible AD with agitation/aggression and no or minimal hallucinations and/or delusions): significantly lower emergence of psychotic symptoms
percentage of patients who discontinued treatment because of lack of efficacy ([10]; p=0.02 vs placebo): 28.6%
patients with an improvement of 50% or more in Young Mania Rating Scale total score ([10]; responder analysis): 48.6%
